Earlier results, collected in patent publication US20120302639A1, “OMEGA 3 FORMULATIONS FOR TREATMENT OF RISK FACTORS FOR CARDIOVASCULAR DISEASE AND PROTECTION AGAINST SUDDEN DEATH” (PIVOTAL THERAPEUTICS INC., priority 2011, published 2012).

Conditions: ALOGPS, as reported by Tetko et al. 2005

## CC/C=C\C/C=C\C/C=C\C/C=C\C/C=C\C/C=C\CCC(=O)O [DHA, Docosahexaenoic acid]
  theoretical Log P: 6.83

## CC/C=C\C/C=C\C/C=C\C/C=C\C/C=C\CCCC(=O)O [EPA, Eicosapentaenoic acid]
  theoretical Log P: 6.53
